Data from US12037344B2, “NLRP3 modulators” (INNATE TUMOR IMMUNITY, INC., priority 2018, dated 2024).
Like-named read-outs stand apart in the source and are kept apart here.

What was measured:
THP-1 cells = experiment: Measurement of IL-1β production, hTRF protocol (second alternative procedure), THP-1 cells; format: cell-based, human; conditions: read-out: NLRP3 hILIB EC50
In short: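 Compounds, dilution series starting at a final 10 μM, were incubated 2 hours at 37° C with PMA-differentiated THP-1 cells (50 ng/ml overnight; 50,000 cells/well, 2% FBS RPMI). Released IL-1β quantified in supernatant by hTRF kit with 1:40 antibody dilution, 4° C overnight, 665/615 nm ratio.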

TLR7 = target: T1, TLR7 (Homo sapiens, UniProt Q9NYK1); experiment: In vitro human TLR7 binding reporter assay (HEK-Blue, NF-kB/AP1-inducible SEAP); format: cell-based; conditions: read-out: TLR7 Agonist EC50
T1 construct: human HEK-Blue cells co-expressing a TLR7 or TLR8 gene
T1 sequence (Q9NYK1 27-1049): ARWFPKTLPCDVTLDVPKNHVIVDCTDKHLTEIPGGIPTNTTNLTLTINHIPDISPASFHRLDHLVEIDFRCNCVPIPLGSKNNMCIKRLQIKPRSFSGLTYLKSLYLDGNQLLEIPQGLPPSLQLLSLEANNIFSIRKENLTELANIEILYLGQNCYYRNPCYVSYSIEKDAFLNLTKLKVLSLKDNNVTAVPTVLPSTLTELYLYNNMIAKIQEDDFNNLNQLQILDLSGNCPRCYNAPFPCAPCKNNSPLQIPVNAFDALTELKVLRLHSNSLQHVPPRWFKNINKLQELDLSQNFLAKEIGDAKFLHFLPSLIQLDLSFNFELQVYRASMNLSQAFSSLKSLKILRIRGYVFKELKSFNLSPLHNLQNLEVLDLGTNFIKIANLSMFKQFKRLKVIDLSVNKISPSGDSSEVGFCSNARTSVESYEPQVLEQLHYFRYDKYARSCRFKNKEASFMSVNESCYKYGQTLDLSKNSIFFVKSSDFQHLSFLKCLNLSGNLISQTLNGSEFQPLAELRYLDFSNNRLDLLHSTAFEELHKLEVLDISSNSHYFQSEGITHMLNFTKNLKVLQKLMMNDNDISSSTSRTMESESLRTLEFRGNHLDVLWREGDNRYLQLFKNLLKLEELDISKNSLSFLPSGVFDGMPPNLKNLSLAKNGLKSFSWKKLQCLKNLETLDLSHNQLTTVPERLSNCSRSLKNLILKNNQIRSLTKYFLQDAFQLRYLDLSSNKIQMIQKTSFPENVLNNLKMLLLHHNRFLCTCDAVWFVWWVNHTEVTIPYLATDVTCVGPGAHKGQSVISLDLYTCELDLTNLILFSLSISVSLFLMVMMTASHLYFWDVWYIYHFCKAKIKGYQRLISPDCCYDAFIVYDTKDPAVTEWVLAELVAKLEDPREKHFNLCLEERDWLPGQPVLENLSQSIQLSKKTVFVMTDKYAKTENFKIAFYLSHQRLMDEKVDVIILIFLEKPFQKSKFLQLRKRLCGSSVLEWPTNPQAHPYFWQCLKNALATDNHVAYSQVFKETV
In short: (§1)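 Cells are seeded and grown for 24 h. Compounds or DMSO are then added and incubated 18 h at 37 °C. Quanti-Blue is added, and SEAP is read after thirty minutes. EC50 values are normalized, with RLU from 50 μM reference standard setting 100% Ymax.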

TLR8 = target: T2, TLR8 (Homo sapiens, UniProt Q9NR97); experiment: In vitro human TLR8 binding reporter assay (HEK-Blue, NF-kB/AP1-inducible SEAP); format: cell-based; conditions: read-out: TLR8 Agonist EC50
T2 construct: human HEK-Blue cells co-expressing a TLR7 or TLR8 gene
T2 sequence (Q9NR97 27-1041): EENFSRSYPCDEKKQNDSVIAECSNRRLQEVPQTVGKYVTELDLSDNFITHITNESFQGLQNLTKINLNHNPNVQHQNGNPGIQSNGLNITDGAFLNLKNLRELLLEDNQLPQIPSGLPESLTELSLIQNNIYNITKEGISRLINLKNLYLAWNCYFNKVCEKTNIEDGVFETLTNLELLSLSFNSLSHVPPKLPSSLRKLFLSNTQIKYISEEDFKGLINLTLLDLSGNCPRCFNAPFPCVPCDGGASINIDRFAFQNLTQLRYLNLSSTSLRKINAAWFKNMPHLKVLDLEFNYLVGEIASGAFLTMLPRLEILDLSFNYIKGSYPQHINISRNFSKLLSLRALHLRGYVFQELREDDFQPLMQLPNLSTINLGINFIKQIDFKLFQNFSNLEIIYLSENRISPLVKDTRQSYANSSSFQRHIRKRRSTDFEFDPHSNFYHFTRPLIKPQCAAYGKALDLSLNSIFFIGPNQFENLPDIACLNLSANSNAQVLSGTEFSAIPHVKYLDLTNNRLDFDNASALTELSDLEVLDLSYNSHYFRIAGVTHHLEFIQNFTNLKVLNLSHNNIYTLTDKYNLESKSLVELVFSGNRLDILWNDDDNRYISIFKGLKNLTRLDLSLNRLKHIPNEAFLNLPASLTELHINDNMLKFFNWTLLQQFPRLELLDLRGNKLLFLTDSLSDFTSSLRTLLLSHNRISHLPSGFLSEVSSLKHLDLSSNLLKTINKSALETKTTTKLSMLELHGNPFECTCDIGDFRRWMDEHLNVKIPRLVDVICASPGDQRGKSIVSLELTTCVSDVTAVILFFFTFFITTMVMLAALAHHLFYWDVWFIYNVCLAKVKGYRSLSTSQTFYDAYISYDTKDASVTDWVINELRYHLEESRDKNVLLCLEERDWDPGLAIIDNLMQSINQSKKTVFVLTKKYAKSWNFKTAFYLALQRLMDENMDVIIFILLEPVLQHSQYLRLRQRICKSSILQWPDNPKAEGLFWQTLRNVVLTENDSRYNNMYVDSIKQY
In short: as §1

[1] = Homo sapiens, THP-1, IL-1β production, human cells
[2] = Homo sapiens, THP-1, IL-1β production, human

CC(C)(O)Cn1cc2c(n1)c(N)nc1cc(-c3ccn[nH]3)ccc12 [Example 450]
EC50 (THP-1 cells; [1]): 0.53 µM
EC50 (TLR7; activity range): > 100 µM
EC50 (TLR8; activity range): > 100 µM

Nc1nc2cc(-c3ccn[nH]3)ccc2c2nn(CCNS(=O)(=O)C3CC3)cc12 [Example 590]
EC50 (THP-1 cells; [1]): 1.2 µM
EC50 (TLR7; activity range): > 100 µM
EC50 (TLR8; activity range): > 100 µM

Cc1cc(C)n(CCn2cc3c(n2)c(N)nc2cc(-c4cc[nH]n4)ccc23)n1 [Example 166]
EC50 (THP-1 cells; [2]): 0.31 µM
EC50 (TLR7; activity range class): > 100 µM
EC50 (TLR8; activity range class): > 100 µM

NC(=O)C1(Cn2cc3c(n2)c(N)nc2cc(-c4cc[nH]n4)ccc23)CC1 [Example 527]
EC50 (THP-1 cells; [1]): 0.4 µM
EC50 (TLR7; activity range): > 100 µM
EC50 (TLR8; activity range): > 100 µM

Nc1nc2cc(-c3cc[nH]n3)ccc2c2nn(C3CCC(O)C3)cc12 (single isomer, unassigned) [Example 341]
EC50 (THP-1 cells; [2]): 0.43 µM
EC50 (TLR7; activity range class): > 100 µM
EC50 (TLR8; activity range class): > 100 µM

Nc1nc2cc(-c3cc[nH]n3)ccc2c2cn(CC(=O)NCC3CCOCC3)nc12 [Example 550]
EC50 (THP-1 cells; [1]): 5.01 µM
EC50 (TLR7; activity range): > 100 µM
EC50 (TLR8; activity range): > 100 µM

CCC(CO)Cn1cc2c(N)nc3cc(-c4cc[nH]n4)ccc3c2n1 (stereo not drawn) [Example 356]
EC50 (THP-1 cells; [2]): 0.83 µM
EC50 (TLR7; activity range class): > 100 µM
EC50 (TLR8; activity range class): > 100 µM

CC(=O)NC(C)Cn1cc2c(N)nc3cc(-c4ccn[nH]4)ccc3c2n1 (stereo not drawn) [Example 254]
EC50 (THP-1 cells; [2]): 20.3 µM
EC50 (TLR7; activity range class): > 100 µM
EC50 (TLR8; activity range class): > 100 µM

Cn1cnc2c(C(=O)NCCn3cc4c(n3)c(N)nc3cc(-c5cc[nH]n5)ccc34)cccc21 [Example 100]
EC50 (THP-1 cells; [2]): 1.67 µM
EC50 (TLR7; activity range class): > 100 µM
EC50 (TLR8; activity range class): > 100 µM

Nc1nc2cc(-c3cc[nH]n3)ccc2c2nn(C[C@@H]3CC(F)(F)CN3)cc12 [Example 363]
EC50 (THP-1 cells; [2]): 1.84 µM
EC50 (TLR7; activity range class): > 100 µM
EC50 (TLR8; activity range class): > 100 µM

Nc1nc2cc(-c3cc[nH]n3)ccc2c2c1cnn2CCOCCO [Example 233]
EC50 (THP-1 cells; [2]): 1.44 µM
EC50 (TLR7; activity range class): > 100 µM
EC50 (TLR8; activity range class): > 100 µM

Nc1nc2cc(-c3cc[nH]n3)ccc2c2cn(CCNC(=O)c3ccncc3)nc12 [Example 37]
EC50 (THP-1 cells; [2]): 0.95 µM
EC50 (TLR7; activity range class): > 100 µM
EC50 (TLR8; activity range class): > 100 µM

Nc1nc2cc(-c3cc[nH]n3)ccc2c2cn(CCCOc3cccnc3)nc12 [Example 9]
EC50 (THP-1 cells; [2]): 0.57 µM
EC50 (TLR7; activity range class): > 100 µM
EC50 (TLR8; activity range class): > 100 µM

Cc1nc(C)c(C(=O)NCCn2cc3c(n2)c(N)nc2cc(-c4cc[nH]n4)ccc23)o1 [Example 46]
EC50 (THP-1 cells; [2]): 4.19 µM
EC50 (TLR7; activity range class): > 100 µM
EC50 (TLR8; activity range class): > 100 µM

CS(=O)(=O)CCCn1cc2c(n1)c(N)nc1cc(-c3cc[nH]n3)ccc12 [Example 171]
EC50 (THP-1 cells; [2]): 0.6 µM
EC50 (TLR7; activity range class): > 100 µM
EC50 (TLR8; activity range class): > 100 µM

CC(N)Cn1cc2c(N)nc3cc(-c4ccn[nH]4)ccc3c2n1 (stereo not drawn) [Example 257]
EC50 (THP-1 cells; [2]): 0.86 µM
EC50 (TLR7; activity range class): > 100 µM
EC50 (TLR8; activity range class): > 100 µM

Cn1cnc(C(=O)NCCc2cc3c(N)nc4cc(-c5cc[nH]n5)ccc4c3[nH]2)c1 [Example 518]
EC50 (THP-1 cells; [1]): 0.53 µM
EC50 (TLR7; activity range): > 100 µM
EC50 (TLR8; activity range): > 100 µM

Nc1nc2cc(-c3cc[nH]n3)ccc2c2cn(CCNC(=O)[C@H]3CCCO3)nc12 [Example 177]
EC50 (THP-1 cells; [2]): 2.23 µM
EC50 (TLR7; activity range class): > 100 µM
EC50 (TLR8; activity range class): > 100 µM

COC[C@@H](O)Cn1cc2c(N)nc3cc(-c4cc[nH]n4)ccc3c2n1 [Example 373]
EC50 (THP-1 cells; [2]): 1.25 µM
EC50 (TLR7; activity range class): > 100 µM
EC50 (TLR8; activity range class): > 100 µM

Nc1nc2cc(-c3cc[nH]n3)ccc2c2nn(C3COCC3O)cc12 (single isomer, unassigned) [Example 324]
EC50 (THP-1 cells; [2]): 1.57 µM
EC50 (TLR7; activity range class): > 100 µM
EC50 (TLR8; activity range class): > 100 µM

Nc1nc2cc(-c3cc[nH]n3)c(F)cc2c2c1cnn2CCO [Example 403]
EC50 (THP-1 cells; [1]): 3.78 µM
EC50 (TLR7; activity range): > 100 µM
EC50 (TLR8; activity range): > 100 µM

CC(C)(F)C(=O)N1CCOCC1Cn1cc2c(N)nc3cc(-c4ccn[nH]4)ccc3c2n1 (stereo not drawn) [Example 264]
EC50 (THP-1 cells; [2]): 0.99 µM
EC50 (TLR7; activity range class): > 100 µM
EC50 (TLR8; activity range class): > 100 µM

C[C@@H](Cn1cc2c(n1)c(N)nc1cc(-c3cc[nH]n3)ccc12)NS(C)(=O)=O [Example 531]
EC50 (THP-1 cells; [1]): 1.68 µM
EC50 (TLR7; activity range): > 100 µM
EC50 (TLR8; activity range): > 100 µM

Nc1nc2cc(-c3ccn[nH]3)ccc2c2nn(CCNC(=O)c3csc(Cl)n3)nc12 [Example 158]
EC50 (THP-1 cells; [2]): 0.97 µM
EC50 (TLR7; activity range class): > 100 µM
EC50 (TLR8; activity range class): 20 to 100 µM

CC(C)(C)OCC(O)Cn1cc2c(N)nc3cc(-c4cc[nH]n4)ccc3c2n1 (stereo not drawn) [Example 375]
EC50 (THP-1 cells; [2]): 4.12 µM
EC50 (TLR7; activity range class): > 100 µM
EC50 (TLR8; activity range class): > 100 µM

CN1CCOC(C(=O)NCCn2cc3c(n2)c(N)nc2cc(-c4cc[nH]n4)ccc23)C1 (single isomer, unassigned) [Example 180]
EC50 (THP-1 cells; IL-1β production, human): 36.7 µM
EC50 (TLR7; activity range class): > 100 µM
EC50 (TLR8; activity range class): > 100 µM

Nc1nc2cc(-c3cc[nH]n3)ccc2c2[nH]c(CCNC(=O)c3cnco3)cc12 [Example 500]
EC50 (THP-1 cells; [1]): 0.37 µM
EC50 (TLR7; activity range): > 100 µM
EC50 (TLR8; activity range): > 100 µM

Nc1nc2cc(-c3ccn[nH]3)ccc2c2nn(CCCNS(=O)(=O)c3cccnc3)cc12 [Example 595]
EC50 (THP-1 cells; [1]): 12.9 µM
EC50 (TLR7; activity range): > 100 µM
EC50 (TLR8; activity range): > 100 µM

CC(C)(C)c1cccc(C(=O)NCCc2cc3c(N)nc4cc(-c5cc[nH]n5)ccc4c3[nH]2)n1 [Example 499]
EC50 (THP-1 cells; [1]): 1.34 µM
EC50 (TLR7; activity range): > 100 µM
EC50 (TLR8; activity range): > 100 µM
